Where a name gives a salt, the structure may show the parent alone.
These compounds were tested against T1, mouse glycolate oxidase (mGO) (Mus musculus, UniProt Q9WU19) (assay: In vitro inhibition of mouse glycolate oxidase (mGO), HRP-coupled Trinder reaction). Settings: compound tested at 100 μM; 40 mM glycolic acid as substrate; activity calculated at 1 minute.
T1 construct: His6 (N); made in house; host or cells: E. coli BL21 (DE3)
T1 sequence (Q9WU19 1-370): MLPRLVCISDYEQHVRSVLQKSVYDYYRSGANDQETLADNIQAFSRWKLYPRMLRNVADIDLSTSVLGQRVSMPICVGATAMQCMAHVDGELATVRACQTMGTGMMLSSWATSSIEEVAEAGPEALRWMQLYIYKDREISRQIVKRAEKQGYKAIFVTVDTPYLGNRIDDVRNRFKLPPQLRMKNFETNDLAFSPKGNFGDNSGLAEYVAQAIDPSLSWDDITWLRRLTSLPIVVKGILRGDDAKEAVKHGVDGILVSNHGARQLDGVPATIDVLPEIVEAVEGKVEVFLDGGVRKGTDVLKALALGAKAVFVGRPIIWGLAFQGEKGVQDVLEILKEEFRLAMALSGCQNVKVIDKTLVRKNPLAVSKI
Type: biochemical
Procedure: Protein expression. BL21 (DE3) E. coli transformed with recombinant pET-15b expression vector containing mouse Hao1 cDNA with an N-terminal His6 tag was grown in LB medium in the presence of 0.1 mg/mL ampicillin. For purification of recombinant mGO expressed in BL21 E. coli, bacteria pellets were thawed and re-suspended in 2 mL lysis buffer (50 mM NaH2PO4, 300 mM NaCl, 10 mM imidazole, 50 μM flavin mononucleotide (FMN), pH 7.5), and then treated for 30 minutes with 1 mM phenylmethylsulfonyl fluoride (PMSF) for protease inhibition, 0.1% Triton X-100 and 0.2 mg/mL lysozyme to break cellular membranes. After sonication, cells were centrifuged and the supernatant containing the total cellular extract (pre-column fraction) was loaded into a Ni-NTA agarose column, and incubated for 30 minutes at 4° C. to allow binding. The column was washed with two bed volumes of lysis buffer with 20 mM imidazole to eliminate unbound proteins (wash fraction). mGO was eluted using the same buffer containing 300 mM imidazole. Fractions containing purified GO were dialyzed against 300 mL of dialysis buffer (50 mM NaH2PO4, 300 mM NaCl, pH 7.5) at 4° C. with agitation overnight, and then kept at 4° C. in darkness. Protein was quantified by the bicinchoninic acid (BCA) assay.
Inhibition assays. Enzymatic activity of mGO was determined in the presence of glycolate as substrate (40 mM glycolic acid) and phosphate buffer (50 mM KPO4, 0.1 mM EDTA, pH 7). The production of glyoxylate was indirectly measured by the quantification of hydrogen peroxide formed during the first oxidation reaction. This hydrogen peroxide reacted with 4.9 mM 4-aminoantipyrine and 0.1 mM sulphonated […] in a coupled horseradish peroxidase (HRP) reaction that yields a quinoneimine dye (FIG. 1) measured at 515 nm (Trinder reaction). Enzymatic activity was calculated at 1 minute after initiation of the Trinder reaction.

Compared with `Cc1onc(C(=O)O)c1N(Cc1ccc(Oc2ccc(C#N)cc2)cc1)Cc1ccc(Oc2ccc(C#N)cc2)cc1` [Compound 32, 4-(bis(4-(4-Cyanophenoxy)benzyl)amino)-5-methylisoxazole-3-carboxylic Acid], `Cc1onc(C(=O)O)c1NCc1ccc(Oc2ccc(C#N)cc2)cc1` [Compound 31, 4-((4-(4-Cyanophenoxy)benzyl)amino)-5-methylisoxazole-3-carboxylic Acid] is lower in inhibition at 100 µM: greater than 60% for the first, 30 to 60% for the second.

Compared with `O=C(O)c1nnccc1NCc1ccc(F)cc1` [Compound 50, sodium salt, 4-((4-Fluorobenzyl)amino)pyridazine-3-carboxylic Acid, sodium Salt], `O=C(O)c1nnccc1Cc1ccc(F)cc1` [Compound 19, 4-(4-Fluorobenzyl) pyridazine-3-carboxylic Acid] is higher in inhibition at 100 µM: less than 30% for the first, 30 to 60% for the second.

First: O=C(O)c1nnsc1Nc1ccc(F)cc1 [Compound 22, 5-((4-Fluorophenyl)amino)-1,2,3-thiadiazole-4-carboxylic Acid]
Second: Cc1snc(C(=O)O)c1NCc1ccc(F)cc1 [Compound 37, 4-((4-Fluorobenzyl)amino)-5-methylisothiazole-3-carboxylic Acid]
The inhibition at 100 µM of the first is higher: greater than 60% for the first, 30 to 60% for the second.

`N#Cc1ccc(-c2cccc(Nc3ccnnc3C(=O)O)c2)cc1` [Compound 48, sodium salt, 4-((4′-Cyano-[1,1′-biphenyl]-3-yl)amino)pyridazine-3-carboxylic Acid] and `Cc1[nH]nc(C(=O)O)c1Nc1cccc(-c2ccc(C#N)cc2)c1` [Compound 42, 4-((4′-Cyano-[1,1′-biphenyl]-3-yl)amino)-5-methyl-1H-pyrazole-3-carboxylic Acid] fall in the same range of inhibition at 100 µM: 30 to 60% for the first, 30 to 60% for the second.

`Cc1onc(C(=O)O)c1Cc1ccc(Br)cc1` [Compound 2, 4-(4-Bromobenzyl)-5-methylisoxazole-3-carboxylic Acid] and `Cc1[nH]nc(C(=O)O)c1Cc1ccc(Br)cc1` [Compound 8, 4-(4-Bromobenzyl)-5-methyl-1H-pyrazole-3-carboxylic Acid] cannot be ordered by inhibition at 100 µM: less than 30% for the first, less than 30% for the second.

First: Cc1n[nH]c(C(=O)O)c1NCc1ccc(F)cc1 [Compound 43, 4-((4-Fluorobenzyl)amino)-3-methyl-1H-pyrazole-5-carboxylic Acid]
Second: Cc1[nH]nc(C(=O)O)c1Cc1ccc(F)cc1 [Compound 12, 5-Methyl-4-(4-fluorobenzyl) 1H-pyrazole-3-carboxylic Acid]
The inhibition at 100 µM of the first is higher: 30 to 60% for the first, less than 30% for the second.

Compared with `Cc1onc(C(=O)O)c1Nc1ccc(Oc2ccc(C#N)cc2)cc1` [Compound 53, 4-((4-(4-cyanophenoxy)phenyl)amino)-5-methylisoxazole-3-carboxylic Acid], `Cc1onc(C(=O)O)c1Nc1ccc(C#N)cc1` [Compound 30, 4-((4-Cyanophenyl)amino)-5-methylisoxazole-3-carboxylic Acid] is lower in inhibition at 100 µM: 30 to 60% for the first, less than 30% for the second.

Compared with `CC(C)(C)OC(=O)N1CC(OCCOc2ccc(Cc3ccc(Nc4ccnnc4C(=O)O)cc3)cc2)C1` [Compound 68 Na salt, 4-((4-(4-(2-((1-(tert-butoxycarbonyl)azetidin-3-yl)oxy)ethoxy)benzyl)phenyl)amino)pyridazine-3-carboxylic Acid sodium Salt], `Cc1[nH]nc(C(=O)O)c1Nc1ccc(Cc2ccc(OCCC3CCNCC3)cc2)cc1` [Compound 62, 5-methyl-4-((4-(4-(2-(piperidin-4-yl)ethoxy)benzyl)phenyl)amino)-1H-pyrazole-3-carboxylic Acid hydrochloride] is lower in inhibition at 100 µM: greater than 60% for the first, less than 30% for the second.

First: CCCCCC(Sc1c(C(=O)O)n[nH]c1C)c1ccc(F)cc1 (centres unmarked) [Compound 79, 4-((1-(4-Fluorophenyl)hexyl)thio)-5-methyl-1H-pyrazole-3-carboxylic Acid]
Second: Cc1onc(C(=O)O)c1Sc1ccc(F)cc1 [Compound 46, 4-((4-Fluorophenyl)thio)-5-methylisoxazole-3-carboxylic Acid]
The inhibition at 100 µM of the first is higher: greater than 60% for the first, 30 to 60% for the second.

`O=C(O)c1nnccc1SCc1ccccc1` [Compound 76, 4-(Benzylthio)pyridazine-3-carboxylic Acid] and `Cc1onc(C(=O)O)c1SCc1ccccc1` [Compound 51, 4-(Benzylthio)-5-methylisoxazole-3-carboxylic Acid] cannot be ordered by inhibition at 100 µM: less than 30% for the first, less than 30% for the second.

Compared with `O=C(O)c1nnsc1Cc1ccc(Br)cc1` [Compound 15, 5-(4-Bromobenzyl)-1,2,3-thiadiazole-4-carboxylic Acid], `N#Cc1ccc(-c2ccc(Cc3snnc3C(=O)O)cc2)cc1` [Compound 14, 5-((4′-Cyano-[1,1′-biphenyl]-4-yl)methyl)-1,2,3-thiadiazole-4-carboxylic Acid] is lower in inhibition at 100 µM: greater than 60% for the first, 30 to 60% for the second.

`Cc1snc(C(=O)O)c1Nc1cccc(-c2ccc(C#N)cc2)c1` [Compound 36, 4-((4′-Cyano-[1,1′-biphenyl]-3-yl)amino)-5-methylisothiazole-3-carboxylic Acid] and `Cc1onc(C(=O)O)c1Cc1ccc(-c2ccc(C#N)cc2)cc1` [Compound 1, 4-((4′-Cyano-[1, 1′-biphenyl]-4-yl)methyl)-5-methylisoxazole-3-carboxylic Acid] fall in the same range of inhibition at 100 µM: 30 to 60% for the first, 30 to 60% for the second.

`Cc1onc(C(=O)O)c1Cc1ccc(Oc2ccccc2)cc1` [Compound 6, 5-Methyl-4-(4-phenoxybenzyl) isoxazole-3-carboxylic Acid] and `Cc1[nH]nc(C(=O)O)c1Nc1cccc(Br)c1` [Compound 41, 4-((3-Bromophenyl)amino)-5-methyl-1H-pyrazole-3-carboxylic Acid] fall in the same range of inhibition at 100 µM: 30 to 60% for the first, 30 to 60% for the second.

— US20210171503A1, “GLYCOLATE OXIDASE INHIBITORS AND USE THEREOF” (ORFAN BIOTECH INC., priority 2017, published 2021)
